The source of these data is US20130316963A1, “INNATE DEFENCE REGULATORY PEPTIDE COMPOSITIONS FOR TREATMENT OF ARTHRITIS” (UNIVERSITY OF MANITOBA, priority 2010, published 2013).

In the data set the test system is human FLS cells. The experiment in a line: Cellular cytotoxicity by release of lactate dehydrogenase (LDH). In kind it is cell-based. The settings on record: presence and absence of cytokine stimulation, 24 hr; IDR-1002 100 μg/ml, IDR-1 200 μg/ml; data not shown. The protocol: Synovial tissues were obtained from patients with OA in accordance to a protocol by the Institutional Review Board at the University of Manitoba. FLS cells were isolated from the synovial tissues following the procedure taught by Kammouni et al. (2007, Regulation of apoptosis in fibroblast-like synoviocytes by the hypoxia-induced Bcl-2 family member Bcl-2/adenovirus E1B 19-kd protein-interacting protein 3. Arthritis Rheum. 56:2854-2863). […] Cellular cytotoxicity was evaluated by monitoring the release of lactate dehydrogenase (LDH) employing a colorimetric detection kit (Roche Diagnostics, Laval, QC, Canada).
Inflammatory cytokines TNF-α and IL-1β stimulate cells types such as FLS, chondrocytes and macrophages resulting in the production of MMP-3 in arthritic joints. […] In this study we evaluated the impact of IDR peptides on TNF-α and IL-1β-induced MMP-3 production. […] The peptides were not cytotoxic to the FLS cells in the presence and absence of cytokine stimulation, as determined by monitoring the tissue culture supernatants for the release of LDH after 24 hr of stimulation (data not shown). Tissue culture supernatants were monitored after 24 hr of stimulation for MMP-3 production by ELISA. […]

Residues, ends and D or L forms follow the SMILES beside them.

`CC[C@H](C)[C@H](NC(=O)[C@H](CCCNC(=N)N)NC(=O)[C@H](CO)NC(=O)[C@@H](N)CCCCN)C(=O)N[C@H](C(=O)N1CCC[C@H]1C(=O)N[C@@H](C)C(=O)N[C@H](C(=O)N1CCC[C@H]1C(=O)N[C@H](C(=O)N[C@@H](CO)C(=O)N[C@@H](CC(C)C)C(=O)N[C@@H](CC(C)C)C(=O)O)C(C)C)[C@@H](C)CC)C(C)C` [IDR-1, KSRIVPAIPVSLL, reference compound] (H-KSRIVPAIPVSLL-OH): the “cytotoxicity to FLS cells (release of LDH)” value is on record as “not cytotoxic”.
